Assays:
open wound of rat skin = test: Open wound healing by external or topical application to skin (propet ointment); assay type: in vivo, rats; settings: for action to promote wound healing: sprayed or spread on the local open wound of rats' skin, inventors' experiences
Description: For that purpose, for example, by using Wistar male rats (body weight about 300 g), the punch biopsies with diameter 6 mm were made in the dorsal region of animals after shaving under inhalation anesthesia to prepare 3 regions of open wound. Among them, 0.1 g of ophthalmic white Vaseline (Propet) containing 0.01% by weight or 0.001% by weight of ginsenoside Rb1 was spread once for every day in two regions, and in the remaining open wound, the equal amount of ophthalmic white Vaseline (propet) was spread. Nine days after preparing open wound, the skin including wound regions was photographed. Further, we have examined the effects of external or topical cutaneous spread of 0.0001% by weight, 0.00001% by weight or 0.000001% by weight of ginsenoside Rb1 by the same procedure. Experimental animals were euthanized by anesthetia immediately before photographing, then wound regions were dissected out after photographing or after dissecting out wound regions, photographing was performed. Thereafter, the wound region tissues were stored in the fixative. FIG. 5 and FIG. 6 are photographs in place of drawings.
The punch biopsy with diameter 6 mm was performed in the dorsal 6 regions of each animal under inhalation anesthesia to prepare open wound. Thereafter, 0.1 g of propet (ophthalmic white vaseline) containing ginsenoside Rb1 at the concentrations of 0.0001% by weight (10^−4% by weight), 0.00001% by weight (10^−5% by weight), 0.000001% by weight (10^−6% by weight), 0.0000001% by weight (10^−7% by weight) and 0.00000001% by weight (10^−8% by weight), respectively, was applied externally, once a day, for 9 days on each open wound. The equal amount of propet alone was applied externally or topically in the control animals. Then, immediately after euthanasia by anesthetization, the skin containing the open wound was dissected out and photographed. The collected skin tissue was preserved in a fixative. FIG. 12 is a photograph in place of drawing.
In each case, there are three wounds on the left side and three wounds on the right side, totally 6 marks of open wounds.
In the experimental cases hereinbefore explained, an area of open wound (flair region) applied externally only with propet is set as a denominator and an area of open wound administered externally with ginsenoside Rb1 at concentrations from 10^−4% by weight to 10^−8% by weight is set as a numerator, and ratio thereof is calculated. In FIG. 13, n=3 and single asterisk (*) indicates significant difference, P<0.05, and two asterisks (**) indicate significant difference, P<0.01. Statistical test was performed according to Scheffe's post hoc test.
Details of dihydroginsenoside Rb1 is described in the specification of PCT/JP00/04102 (Brain cell or nerve cell protecting agents comprising ginseng). The punch biopsy with diameter 6 mm was performed at 5 places in the dorsal region of rats (n=4) under inhalation anesthesia to prepare open wound. Thereafter, 0.1 g of propet containing dihydroginsenoside Rb1 at concentrations of 0.0001% by weight (10^−4% by weight), 0.00001% by weight (10^−5% by weight), 0.000001% by weight (10^−6% by weight) and 0.0000001% by weight (10^−7% by weight), respectively, was applied topically or externally, once a day, for 9 days onto each open wound. The equal amount of propet alone was applied externally or topically in the control animals. Then, immediately after euthanasia by anesthetization, the skin containing the open wound was dissected out and photographed. The collected skin tissue was preserved in a fixative. FIG. 14 is a photograph in place of drawing. In FIG. 14, four cases are shown, and from the upper column, the first case, the second case, the third case and the fourth case are shown.

[1] = Observation of administered animals for side effects; assay type: in vivo, rats; settings: present experiments, animals carefully observed
Description: The amount of administration of ginsenoside Rb1, which is used as the preparation(s) for external or topical application to skin or the preparation(s) for external or topical application to mucosa, is far smaller than the amount of intravenous administration.
Actually, as indicated in PCT/JP00/04102 (Brain cell or nerve cell protecting agents comprising ginseng), as far as directing treatment or therapy of cerebral infarction by continuous intravenous administration in a dose of […] (weighing 300 g), dihydroginsenoside Rb1 is thought to be a quite safe pharmaceutical composition. The amount of administration of ginsenoside Rb1, which is used as the preparation(s) for external or topical application to skin or the preparation(s) for external or topical application to mucosa, is far smaller than the amount of intravenous administration.

[2] = tested on: cultured nerve cells (neurons); test: SNP-induced apoptosis of cultured nerve cells, MAP2 immunoblotting; assay type: cell-based, rats
Description: We (Sakanaka and Tanaka) had reported that when cultured nerve cells were exposed for a short time to sodium nitroprusside, apoptosis or apoptosis-like cell death of neurons is induced (Toku, K. et al., J. Neurosci. Res., 53, 415-425, 1998). […] We have examined the neuroprotective action of dihydroginsenoside Rb1 using the same experimental system.
Nerve cells were isolated from the cerebral cortices of fetal rats at gestation day 17 by using trypsin EDTA and seeded onto 24 well plate coated with poly-L-lysine. After incubating the cells in Dulbecco's modified Eagle's medium (DMEM) containing 10% fetal calf serum for 16 hours, the culture medium was replaced with a serum-free medium for neuronal culture containing insulin, transferrin, etc. and the neurons were cultured for 3 or 4 days. On day 3 or 4 of culture, sodium nitroprusside (SNP) at the concentration of 300 μM was added to the neuronal culture and incubated for 10 minutes. […] In order to quantify the survival rate of nerve cells or neurons, immunostained MAP2 band was analyzed with densitometry. […]
Nerve cells were isolated from cerebral cortices of fetal rats on gestation day 17 by using trypsin EDTA and seeded onto a 24 well plate(s) coated with poly-L-lysine. […] In order to quantify survival rate of nerve cells, immunostained MAP2 band was analyzed with densitometry.

cerebral infarct lesion = settings: intravenous 6 pg/day-60 pg/day, rats weighing 300 g; PCT/JP00/04102; cited from earlier work

With `CC(C)CCC[C@](C)(O[C@@H]1O[C@H](CO[C@@H]2O[C@H](CO)[C@@H](O)[C@H](O)[C@H]2O)[C@@H](O)[C@H](O)[C@H]1O)[C@H]1CC[C@]2(C)[C@@H]1[C@H](O)C[C@@H]1[C@@]3(C)CC[C@H](O[C@@H]4O[C@H](CO)[C@@H](O)[C@H](O)[C@H]4O[C@@H]4O[C@H](CO)[C@@H](O)[C@H](O)[C@H]4O)C(C)(C)[C@@H]3CC[C@]12C` [dihydroginsenoside Rb1] the “ratio of open wound area to propet alone (FIG. 15)” value (open wound of rat skin; 0.00001% by weight (10^−5% by weight) or less, n=4, Fisher's PLSD P<0.05) was “facilitated significantly wound healing”, the “therapeutic effect on open wound in rats” value (open wound of rat skin; 0.0001% by weight (10^−4% by weight)) was “trivial” and the “area of open wound region relative to control” value (open wound of rat skin; dihydroginsenoside Rb1 at 10^−5%, 10^−6% or 10^−7% by weight) was “½-¼”. For the same molecule, the “hair growth in wound healing region (FIG. 14)” value (open wound of rat skin; low concentrations of dihydroginsenoside Rb1) was “obvious hair growth was observed”, the “wound healing vs propet alone (FIG. 14)” value (open wound of rat skin; propet containing 10^−5% to 10^−7% by weight (100 ng/g to 1 ng/g), once a day for 9 days, n=4) was “wound healing was obviously promoted” and the “side effect in administered animals” value [1] was “no side effect was noted”. For the same molecule, the “apoptosis or apoptosis-like cell death of neurons caused by SNP, MAP2 band (FIG. 16)” value ([2]; 0.01 fg/ml (lane 3) to 1 ng/ml (lane 7), SNP 300 μM 10 minutes, 16 hours after SNP) was “obviously inhibited”, the “apoptosis or apoptosis-like cell death of nerve cells, MAP2 densitometry (FIG. 17)” value ([2]; 0.01 fg/ml to 1 ng/ml, n=5, P<0.001 / P<0.0001) was “significantly inhibited” and the “therapeutic effect on brain infarction” value (cerebral infarct lesion) was “excellent therapeutic effect on brain infarction”.

With bFGF: basic fibroblast growth factor the “action to promote wound healing” value (open wound of rat skin) was “inferior to the effects of continuous intravenous administration of ginsenoside Rb1”.

In the case of PDGF, the “action to promote wound healing” value (open wound of rat skin) is reported as “inferior to the effects of continuous intravenous administration of ginsenoside Rb1”.

With EGF: epidermal growth factor the “action to promote wound healing” value (open wound of rat skin) was “inferior to the effects of continuous intravenous administration of ginsenoside Rb1”.

Reference: patent US20030104079A1, “Skin tissue regeneration promoters comprising ginsenoside Rb1” (Japan Science and Technology Corporation, Japan, priority 2000, published 2003)
